Assay results published in PubChem BioAssay (NCI).
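In this assay, cells in 96-well plates receive the compound at five concentrations for 48 hours. Endpoints are linearly interpolated between the surrounding concentrations. GI50 = concentration required for 50% inhibition of growth. TGI denotes the concentration required for complete inhibition of growth.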

Columns and labels:
Experiment in all cases: NCI tumour cell line growth inhibition, 48 h
786-0 renal = test system: 786-0 renal
A498 renal = test system: A498 renal
A549 NSCLC = test system: A549 NSCLC
ACHN renal = test system: ACHN renal
BT-549 breast = test system: BT-549 breast
CAKI-1 renal = test system: CAKI-1 renal
CCRF-CEM leukemia = test system: CCRF-CEM leukemia
COLO 205 colon = test system: COLO 205 colon
DU-145 prostate = test system: DU-145 prostate
EKVX NSCLC = test system: EKVX NSCLC
HCC-2998 colon = test system: HCC-2998 colon
HCT-116 colon = test system: HCT-116 colon
HCT-15 colon = test system: HCT-15 colon
HL-60(TB) leukemia = test system: HL-60(TB) leukemia
HOP-62 NSCLC = test system: HOP-62 NSCLC
HOP-92 NSCLC = test system: HOP-92 NSCLC
HS 578T breast = test system: HS 578T breast
HT29 colon = test system: HT29 colon
IGROV1 ovarian = test system: IGROV1 ovarian
K-562 leukemia = test system: K-562 leukemia
KM12 colon = test system: KM12 colon
LOX IMVI melanoma = test system: LOX IMVI melanoma
M14 melanoma = test system: M14 melanoma
MALME-3M melanoma = test system: MALME-3M melanoma
MCF7 breast = test system: MCF7 breast
MDA-MB-231 breast = test system: MDA-MB-231 breast
MDA-MB-435 = test system: MDA-MB-435
MOLT-4 leukemia = test system: MOLT-4 leukemia
NCI-H226 lung = test system: NCI-H226 lung
NCI-H23 lung = test system: NCI-H23 lung
NCI-H460 lung = test system: NCI-H460 lung
NCI-H522 lung = test system: NCI-H522 lung
NCI/ADR-RES ovarian = test system: NCI/ADR-RES ovarian
OVCAR-3 ovarian = test system: OVCAR-3 ovarian
OVCAR-4 ovarian = test system: OVCAR-4 ovarian
OVCAR-5 ovarian = test system: OVCAR-5 ovarian
OVCAR-8 ovarian = test system: OVCAR-8 ovarian
PC-3 prostate = test system: PC-3 prostate
RPMI-8226 leukemia = test system: RPMI-8226 leukemia
RXF 393 renal = test system: RXF 393 renal
SF-268 CNS = test system: SF-268 CNS
SF-295 CNS = test system: SF-295 CNS
SF-539 CNS = test system: SF-539 CNS
SK-MEL-2 melanoma = test system: SK-MEL-2 melanoma
SK-MEL-28 melanoma = test system: SK-MEL-28 melanoma
SK-MEL-5 melanoma = test system: SK-MEL-5 melanoma
SK-OV-3 ovarian = test system: SK-OV-3 ovarian
SN12C renal = test system: SN12C renal
SNB-19 CNS = test system: SNB-19 CNS
SNB-75 CNS = test system: SNB-75 CNS
SR leukemia = test system: SR leukemia
SW-620 colon = test system: SW-620 colon
T-47D breast = test system: T-47D breast
TK-10 renal = test system: TK-10 renal
U251 CNS = test system: U251 CNS
UACC-257 melanoma = test system: UACC-257 melanoma
UACC-62 melanoma = test system: UACC-62 melanoma
UO-31 renal = test system: UO-31 renal

## O=C(Nc1ccc(Oc2cccc(Cl)c2)c(Cl)c1)c1cnccn1
786-0 renal
  GI50: 2160 nM
  TGI: > 50000 nM
A498 renal
  GI50: 5850 nM
  TGI: 28200 nM
A549 NSCLC
  GI50: 312 nM
  TGI: > 50000 nM
ACHN renal
  GI50: 3630 nM
  TGI: > 50000 nM
BT-549 breast
  GI50: 3310 nM
  TGI: > 50000 nM
CAKI-1 renal
  GI50: 844 nM
  TGI: > 50000 nM
CCRF-CEM leukemia
  GI50: 367 nM
  TGI: > 50000 nM
COLO 205 colon
  GI50: 208 nM
  TGI: 16200 nM
DU-145 prostate
  GI50: 839 nM
  TGI: > 50000 nM
EKVX NSCLC
  GI50: 771 nM
  TGI: > 50000 nM
HCC-2998 colon
  GI50: 5310 nM
  TGI: > 36000 nM
HCT-116 colon
  GI50: 210 nM
  TGI: > 50000 nM
HCT-15 colon
  GI50: 171 nM
  TGI: > 50000 nM
HL-60(TB) leukemia
  GI50: 556 nM
  TGI: 8950 nM
HOP-62 NSCLC
  GI50: 368 nM
  TGI: > 50000 nM
HOP-92 NSCLC
  GI50: 673 nM
  TGI: > 32800 nM
HS 578T breast
  GI50: 214 nM
  TGI: > 50000 nM
HT29 colon
  GI50: 168 nM
  TGI: > 20300 nM
IGROV1 ovarian
  GI50: 363 nM
  TGI: > 50000 nM
K-562 leukemia
  GI50: 162 nM
  TGI: > 50000 nM
KM12 colon
  GI50: 180 nM
  TGI: > 50000 nM
LOX IMVI melanoma
  GI50: 275 nM
  TGI: > 50000 nM
M14 melanoma
  GI50: 225 nM
  TGI: > 50000 nM
MALME-3M melanoma
  GI50: 1920 nM
  TGI: > 50000 nM
MCF7 breast
  GI50: 183 nM
  TGI: > 50000 nM
MDA-MB-231 breast
  GI50: 452 nM
  TGI: > 40000 nM
MDA-MB-435
  GI50: 109 nM
  TGI: 290 nM
MOLT-4 leukemia
  GI50: 371 nM
  TGI: > 50000 nM
NCI-H226 lung
  GI50: 1730 nM
  TGI: > 29800 nM
NCI-H23 lung
  GI50: 903 nM
  TGI: > 50000 nM
NCI-H460 lung
  GI50: 245 nM
  TGI: > 50000 nM
NCI-H522 lung
  GI50: 296 nM
  TGI: 2550 nM
NCI/ADR-RES ovarian
  GI50: 265 nM
  TGI: > 11800 nM
OVCAR-3 ovarian
  GI50: 198 nM
  TGI: 1160 nM
OVCAR-4 ovarian
  TGI: > 50000 nM
OVCAR-5 ovarian
  GI50: 1600 nM
  TGI: > 50000 nM
OVCAR-8 ovarian
  GI50: 1410 nM
  TGI: > 50000 nM
PC-3 prostate
  GI50: 1060 nM
  TGI: > 50000 nM
RPMI-8226 leukemia
  GI50: 323 nM
  TGI: > 50000 nM
RXF 393 renal
  GI50: 831 nM
  TGI: 3470 nM
SF-268 CNS
  GI50: 1140 nM
  TGI: > 50000 nM
SF-295 CNS
  GI50: 480 nM
  TGI: > 25100 nM
SF-539 CNS
  GI50: 306 nM
  TGI: 1720 nM
SK-MEL-2 melanoma
  GI50: 352 nM
  TGI: > 50000 nM
SK-MEL-28 melanoma
  GI50: 14100 nM
  TGI: > 50000 nM
SK-MEL-5 melanoma
  GI50: 280 nM
  TGI: > 50000 nM
SK-OV-3 ovarian
  GI50: 11500 nM
  TGI: > 50000 nM
SN12C renal
  GI50: 2560 nM
  TGI: > 50000 nM
SNB-19 CNS
  GI50: 338 nM
  TGI: > 50000 nM
SNB-75 CNS
  GI50: 258 nM
  TGI: 2330 nM
SR leukemia
  GI50: 145 nM
  TGI: > 50000 nM
SW-620 colon
  GI50: 216 nM
  TGI: > 50000 nM
T-47D breast
  GI50: 460 nM
  TGI: > 50000 nM
TK-10 renal
  GI50: 3010 nM
  TGI: > 50000 nM
U251 CNS
  GI50: 245 nM
  TGI: > 22900 nM
UACC-257 melanoma
  GI50: > 20000 nM
  TGI: > 50000 nM
UACC-62 melanoma
  GI50: 345 nM
  TGI: > 50000 nM
UO-31 renal
  GI50: 1910 nM
  TGI: > 50000 nM
